Test results published in publication PMC12339328, “Therapeutic effect and mechanism of gigantol on hyperuricemia” (Frontiers in Endocrinology, 2025).
“And” between values parts separate entries of the source, which are not always exact repeats. Identical values can stand only once. “Also recorded” adds a separate entry of the source. Like-named read-outs stand apart in the source and are kept apart here.

How the values were obtained:
[1] = test system: TNF-α; experiment: TNF-α level in serum and kidney of HUA mice (ELISA); assay type: in vivo; conditions: HUA mice treated with gigantol; vs model group; p < 0.01
Procedure: (§1) Blood obtained from mice in each group was centrifuged at 3,000 r/min for 15 min in a low-temperature high-speed centrifuge. Then, the serum was separated, and the levels of UA, CRE, and BUN in the serum were measured by the kits. The levels of TNF-α, IL-1β, IL-6, and NLRP3 in serum were detected by ELISA kits. Liver and kidney tissues were homogenized by adding ice-cold saline, and homogenates were centrifuged at 12,000 r/min for 10 min. XOD activity in the supernatant of the liver tissues was measured, and the levels of TNF-α, IL-1β, IL-6, and NLRP3 in the supernatant of the kidney tissues were measures by ELISA kits.

[2] = test system: renal tissue in mice with HUA; experiment: Renal histopathology of HUA mice (HE staining); assay type: in vivo; conditions: 200×, gigantol-treated groups
Source text: (§2) The kidney and liver tissues were fixed with 4% paraformaldehyde solution. After paraffin embedding and sectioning, the paraffin on the slide was removed with xylene and soaked in different concentrations of ethanol and deionized water. The liver and kidney tissues were stained according to the HE staining procedure, and then the morphology of the kidney tissues and liver tissues was observed under the microscope.

[3] = test system: OAT1; experiment: OAT1 protein expression in kidney of HUA mice (Western blot); conditions: gigantol medium-dose and high-dose groups (10, 20 mg/kg), vs model group, p < 0.01
[4] = test system: Caspase-1; experiment: Caspase-1 protein expression in HK-2 cells (Western blot); conditions: for CASPASE / β (reference protein) ratio / CASPASE protein expression, band value: HK-2, replicates 1-3
[5] = test system: liver tissue in mice with HUA; experiment: Liver histopathology of HUA mice (HE staining); assay type: in vivo; conditions: 200×, gigantol 5, 10, 20 mg/kg
Source text: as §2

[6] = test system: XOD; conditions: HUA mice; each dose of gigantol (5, 10, 20 mg/kg); vs model group; p < 0.01, p < 0.01, p < 0.001
[7] = test system: XOD; conditions: HUA cell model; gigantol 25, 50, 100 μmol/L, dose-dependent; vs model; p < 0.05, p < 0.001, p < 0.001
[8] = test system: AML12 cells; experiment: UA level in AML12 HUA cell model; assay type: cell-based, mouse; conditions: adenosine + XOD induced; gigantol 25, 50, 100 μmol/L; p < 0.001
[9] = test system: GLUT9; experiment: GLUT9 protein expression in HK-2 cells (Western blot); conditions: for GLUT (GLUT9) / β (reference protein) ratio / GLUT (GLUT9) protein expression, band value: HK-2, replicates 1-3; for GLUT9 protein expression in HK-2 cells: HUA cell model, gigantol 25, 50, 100 µmol/L, especially high-dose (p < 0.001), vs model
[10] = test system: GLUT9; experiment: GLUT9 protein expression in kidney of HUA mice (Western blot); assay type: in vivo; conditions: gigantol, dose-dependent, vs model group
[11] = rat, in vivo
Procedure: Whole blood was taken into heparinized tubes at predefined time points (2, 5, 10, 20, and 30 min, and 1, 2, 4, 6, 8, and 12 h) after administration, and plasma was separated by centrifugation and stored at −20°C until testing. […] Whole blood was taken into heparinized tubes at predefined time points (2, 5, 10, 20, and 30 min, and 1, 2, 4, 6, 8, and 12 h) after administration, and plasma was separated by centrifugation and stored at −20°C until testing. […] Pharmacokinetic parameters were calculated by using the pharmacokinetics software WinNonlin 8.1.

[12] = test system: NLRP3; experiment: NLRP3 protein expression in kidney of HUA mice (Western blot); assay type: in vivo; conditions: gigantol high-dose group (20 mg/kg), vs model group, p < 0.01
[13] = test system: OAT3; experiment: OAT3 protein expression in HK-2 cells (Western blot); conditions: for OAT3 / β (reference protein) ratio / OAT3 protein expression, band value: HK-2, replicates 1-3
[14] = test system: IL-6; experiment: IL-6 level in serum and kidney of HUA mice (ELISA); assay type: in vivo; conditions: HUA mice treated with gigantol; vs model group; p < 0.01
Procedure: as §1

[15] = test system: TNF-α; experiment: TNF-α level in HK-2 HUA cell model (ELISA); assay type: cell-based, human; conditions: adenosine and XOD induction; gigantol 25, 50, 100 μmol/L
Procedure: (§3) HK-2 cells were treated as described above. The supernatant of the medium was collected, and the levels of proinflammatory cytokines (TNF-α, IL-6, and IL-1β) and the NLRP3 inflammasome component in the supernatant were detected using commercially available ELISA kits according to the manufacturers’ protocols.

[16] = test system: OAT1; experiment: OAT1 protein expression in HK-2 cells (Western blot); conditions: for OAT1 / β (reference protein) ratio / OAT1 protein expression, band value: HK-2, replicates 1-3
[17] = test system: HK-2 cells; experiment: UA level in HK-2 HUA cell model; assay type: cell-based, human; conditions: adenosine + XOD induced; gigantol 25, 50, 100 μmol/L; p < 0.001
[18] = test system: NLRP3; experiment: NLRP3 content in HK-2 HUA cell model (ELISA); assay type: cell-based, human; conditions: gigantol 25, 50, 100 µmol/L, dose-dependent
Procedure: as §3

[19] = test system: mice with HUA induced by potassium oxonate; experiment: Serum and urine UA, CRE and BUN in HUA mice; assay type: in vivo
Procedure: On day 6, the mice were transferred to a metabolic cage, given free water and diet, and 24-h urine samples were collected for the determination of UA, CRE, and BUN levels. One hour after the last administration, 2 mL of blood was taken through eyeball extraction, and the mice were killed by euthanasia. Mice were dissected and the livers and kidneys were removed.
as §1

[20] = test system: caspase-1; experiment: Caspase-1 protein expression in kidney of HUA mice (Western blot); assay type: in vivo; conditions: gigantol high-dose group (20 mg/kg), vs model group, p < 0.001
[21] = test system: OAT3; experiment: OAT3 protein expression in kidney of HUA mice (Western blot); conditions: vs model group
[22] = target: T1, XOD (Mus musculus, UniProt Q00519); assay type: in vivo; conditions: HUA mice, vs model group
T1 construct: XOD activity in the supernatant of the liver tissues was measured; from tissue; host or cells: liver of male KM mice (hyperuricemia model, potassium oxonate)

[23] = HUA cell model, 50 and 100 µmol/L, vs model group
[24] = HUA cell model, gigantol 25, 50, 100 µmol/L, dose-dependent
[25] = 24-h urine, after gigantol treatment
[26] = gigantol 5, 10, 20 mg/kg gavage 7 days, vs model group, high dose p < 0.001

T1 sequence (Q00519 whole entry): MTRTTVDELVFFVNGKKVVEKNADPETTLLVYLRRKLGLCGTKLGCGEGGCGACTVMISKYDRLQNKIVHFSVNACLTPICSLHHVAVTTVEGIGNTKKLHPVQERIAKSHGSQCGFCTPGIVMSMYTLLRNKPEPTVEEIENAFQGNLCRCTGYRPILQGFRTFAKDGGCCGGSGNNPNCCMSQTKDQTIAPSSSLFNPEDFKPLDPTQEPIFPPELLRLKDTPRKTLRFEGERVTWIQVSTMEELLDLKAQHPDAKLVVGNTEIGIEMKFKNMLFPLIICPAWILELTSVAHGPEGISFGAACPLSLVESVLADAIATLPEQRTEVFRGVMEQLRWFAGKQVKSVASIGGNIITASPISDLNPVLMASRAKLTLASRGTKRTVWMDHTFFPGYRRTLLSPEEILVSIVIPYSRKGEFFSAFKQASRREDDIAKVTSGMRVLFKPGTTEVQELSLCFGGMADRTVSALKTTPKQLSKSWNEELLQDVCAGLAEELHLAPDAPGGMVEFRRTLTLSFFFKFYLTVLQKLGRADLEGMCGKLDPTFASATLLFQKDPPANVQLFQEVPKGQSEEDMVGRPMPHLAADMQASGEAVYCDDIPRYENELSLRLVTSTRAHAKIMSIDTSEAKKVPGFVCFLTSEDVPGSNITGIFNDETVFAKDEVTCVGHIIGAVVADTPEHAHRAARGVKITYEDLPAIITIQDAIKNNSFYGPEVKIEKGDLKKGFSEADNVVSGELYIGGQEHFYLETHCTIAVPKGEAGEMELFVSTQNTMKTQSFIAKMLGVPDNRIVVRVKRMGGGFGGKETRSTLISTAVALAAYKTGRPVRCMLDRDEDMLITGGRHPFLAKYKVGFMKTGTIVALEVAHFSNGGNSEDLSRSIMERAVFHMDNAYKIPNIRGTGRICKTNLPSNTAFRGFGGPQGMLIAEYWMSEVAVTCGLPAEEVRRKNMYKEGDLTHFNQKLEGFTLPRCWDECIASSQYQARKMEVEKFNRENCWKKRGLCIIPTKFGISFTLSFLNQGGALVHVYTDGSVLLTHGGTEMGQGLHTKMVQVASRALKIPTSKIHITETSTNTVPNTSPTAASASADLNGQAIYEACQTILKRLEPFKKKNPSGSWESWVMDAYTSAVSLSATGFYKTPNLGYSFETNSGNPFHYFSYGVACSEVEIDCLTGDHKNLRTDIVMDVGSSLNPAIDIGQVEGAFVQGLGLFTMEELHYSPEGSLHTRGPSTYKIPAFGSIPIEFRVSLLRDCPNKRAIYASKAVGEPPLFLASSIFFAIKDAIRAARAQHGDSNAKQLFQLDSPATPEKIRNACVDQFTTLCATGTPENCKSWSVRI

Substance: 5-[2-(3-hydroxy-5-methoxyphenyl) ethyl]-2-methoxyphenol [gigantol]
- renal TNF-α level [1]: significantly lower
- serum TNF-α level [1]: significantly lower
- renal histopathology: glomerulus injury [2]: a trend of recovery in the injury of the glomerulus
- renal histopathology: urate crystals [2]: no urate crystals in the renal tubules
- OAT1 protein expression in kidney [3]: increased
- CASPASE / β (reference protein) ratio ([4]; 中 = gigantol 50 µmol/L): 0.976 and 0.8978 and 0.9502
- CASPASE protein expression, band value ([4]; 中 = gigantol 50 µmol/L): 169.696 and 166.728 and 180.371
- CASPASE / β (reference protein) ratio ([4]; 低 = gigantol 25 µmol/L): 0.8128 and 1.007 and 1.064
- CASPASE protein expression, band value ([4]; 低 = gigantol 25 µmol/L): 134.57 and 189.238 and 191.281
- CASPASE / β (reference protein) ratio ([4]; 高 = gigantol 100 µmol/L): 0.7864 and 0.8188 and 0.8437
- CASPASE protein expression, band value ([4]; 高 = gigantol 100 µmol/L): 146.411 and 160.261 and 164.281
- Caspase-1 protein level in HK-2 cells ([4]; HUA cell model, gigantol 25, 50, 100 µmol/L, vs model group): significantly reduced; also recorded: decreased significantly
- liver histopathology [5]: the atrophy of liver cells significantly improved
- XOD protein expression in liver [6]: significantly decreased
- XOD activity in AML12 cells [7]: downregulated
- UA level in AML12 cells [8]: suppressed
- GLUT (GLUT9) / β (reference protein) ratio ([9]; 中 = gigantol 50 µmol/L): 0.824 and 0.7786 and 0.7289
- GLUT (GLUT9) protein expression, band value ([9]; 中 = gigantol 50 µmol/L): 143.264 and 144.598 and 138.372
- GLUT (GLUT9) / β (reference protein) ratio ([9]; 低 = gigantol 25 µmol/L): 0.9479 and 0.8166 and 0.8642
- GLUT (GLUT9) protein expression, band value ([9]; 低 = gigantol 25 µmol/L): 156.942 and 153.38 and 155.361
- GLUT (GLUT9) / β (reference protein) ratio ([9]; 高 = gigantol 100 µmol/L): 0.7095 and 0.5035 and 0.629
- GLUT (GLUT9) protein expression, band value ([9]; 高 = gigantol 100 µmol/L): 132.094 and 98.555 and 122.472
- GLUT9 protein expression in HK-2 cells [9]: significantly decreased
- GLUT9 protein expression in HK-2 cells ([9]; listed as Gigantol): decreased
- GLUT9 protein expression in kidney [10]: significantly reduced
- F [11]: 16.82%
- time of second peak of blood concentration [11]: approximately 2 h
- NLRP3 protein expression in kidney [12]: decreased significantly
- OAT3 / β (reference protein) ratio ([13]; 中 = gigantol 50 µmol/L): 1.0464 and 0.924 and 0.8748
- OAT3 protein expression, band value ([13]; 中 = gigantol 50 µmol/L): 181.929 and 171.604 and 166.063
- OAT3 / β (reference protein) ratio ([13]; 低 = gigantol 25 µmol/L): 0.8292 and 0.8811 and 0.9428
- OAT3 protein expression, band value ([13]; 低 = gigantol 25 µmol/L): 137.293 and 165.504 and 169.481
- OAT3 / β (reference protein) ratio ([13]; 高 = gigantol 100 µmol/L): 0.9571 and 0.9652 and 1.021
- OAT3 protein expression, band value ([13]; 高 = gigantol 100 µmol/L): 178.19 and 188.909 and 198.88
- OAT3 protein level in HK-2 cells [13, 23]: significantly increased
- OAT3 protein expression in HK-2 cells [13, 24]: increase
- renal IL-6 level [14]: significantly lower
- serum IL-6 level [14]: significantly lower
- TNF-α level in HK-2 cells [15]: tended to decrease dose-dependently
- OAT1 / β (reference protein) ratio ([16]; 中 = gigantol 50 µmol/L): 1.086 and 1.108 and 1.097
- OAT1 protein expression, band value ([16]; 中 = gigantol 50 µmol/L): 188.76 and 205.851 and 208.271
- OAT1 / β (reference protein) ratio ([16]; 低 = gigantol 25 µmol/L): 1.029 and 1.058 and 0.975
- OAT1 protein expression, band value ([16]; 低 = gigantol 25 µmol/L): 170.32 and 198.69 and 175.271
- OAT1 / β (reference protein) ratio ([16]; 高 = gigantol 100 µmol/L): 1.06 and 1.0745 and 1.075
- OAT1 protein expression, band value ([16]; 高 = gigantol 100 µmol/L): 197.371 and 210.308 and 209.271
- OAT1 protein level in HK-2 cells [16, 23]: significantly increased
- OAT1 protein expression in HK-2 cells [16, 24]: increase
- UA level in HK-2 cells [17]: suppressed
- NLRP3 in HK-2 cells [18]: significantly reduced
- urine BUN level [19, 25]: increased
- urine CRE level [19, 25]: increased
- urine UA content ([19]; 24-h urine, gigantol 5, 10, 20 mg/kg gavage, vs model group, p < 0.01): increased significantly in a dose-dependent manner
- serum BUN level [19, 26]: significantly reduced
- serum CRE level [19, 26]: significantly reduced
- serum UA level [19, 26]: significantly reduced
- caspase-1 protein expression in kidney [20]: decreased significantly
- OAT3 protein expression in kidney ([21]; gigantol low-dose group (5 mg/kg)): not in the low-dose group
- OAT3 protein expression in kidney ([21]; gigantol medium-dose and high-dose groups (10, 20 mg/kg), p < 0.05): increased
- XOD activity in mice liver ([22]; gigantol high dose (20 mg/kg), p < 0.001): inhibited
- XOD activity in mice liver ([22]; gigantol low and middle doses (5, 10 mg/kg), p > 0.05): no significant difference
